Test results reported in patent US20230085307A1, “PYRIDAZINONE COMPOUND AND HERBICIDE” (NISSAN CHEMICAL CORPORATION, priority 2019, published 2023).

What was measured:
Chinese sprangletop = test: Test Example 3: herbicidal effect by foliage application, Wagner pot (Table 18, symbol D); assay type: in vivo, chinese sprangletop (Leptochloa chinensis); conditions: 320 g/ha
Summary of the method: (§1)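 Plants were sown in alluvial soil held under 0.1–0.5 cm standing water and grown 14 days in a greenhouse at 25–30 °C. An emulsifiable formulation, water-diluted to the set dose, was then sprayed onto the foliage, and effects were scored three weeks later using previously defined criteria.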

rice flat sedge = test: Test Example 3: herbicidal effect by foliage application, Wagner pot (Table 18, symbol E); assay type: in vivo, rice flat sedge (Cyperus iria); conditions: 320 g/ha
Summary of the method: as §1

southern crabgrass [1] = test: Test Example 4: herbicidal effect by soil treatment (Table 19, symbol F); assay type: in vivo, southern crabgrass (Digitaria ciliaris); conditions: amount of applied herbicide 320 g/ha
Summary of the method: (§2)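 Applied as a water-diluted emulsion, the compound was sprayed onto soil covering newly sown seeds. Evaluation came three weeks after application, in a greenhouse held at 25° C. to 30° C.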

green foxtail [2] = test: Test Example 4: herbicidal effect by soil treatment (Table 19, symbol G); assay type: in vivo, green foxtail (Setaria viridis); conditions: amount of applied herbicide 320 g/ha
Summary of the method: as §2

barnyard grass [3] = test: Test Example 4: herbicidal effect by soil treatment (Table 19, symbol H); assay type: in vivo, barnyard grass (Echinochloa crus-galli); conditions: amount of applied herbicide 320 g/ha
Summary of the method: as §2

wild oat [4] = test: Test Example 4: herbicidal effect by soil treatment (Table 19, symbol I); assay type: in vivo, wild oat (Avena fatua); conditions: amount of applied herbicide 320 g/ha
Summary of the method: as §2

blackgrass [5] = test: Test Example 4: herbicidal effect by soil treatment (Table 19, symbol J); assay type: in vivo, blackgrass (Alopecurus myosuroides); conditions: amount of applied herbicide 320 g/ha
Summary of the method: as §2

Italian ryegrass [6] = test: Test Example 4: herbicidal effect by soil treatment (Table 19, symbol K); assay type: in vivo, Italian ryegrass (Lolium multiflorum); conditions: amount of applied herbicide 320 g/ha
Summary of the method: as §2

windgrass [7] = test: Test Example 4: herbicidal effect by soil treatment (Table 19, symbol L); assay type: in vivo, windgrass (Apera spica-venti); conditions: amount of applied herbicide 320 g/ha
Summary of the method: as §2

velvetleaf [8] = test: Test Example 4: herbicidal effect by soil treatment (Table 19, symbol M); assay type: in vivo, velvetleaf (Abutilon theophrasti); conditions: amount of applied herbicide 320 g/ha
Summary of the method: as §2

redroot pigweed [9] = test: Test Example 4: herbicidal effect by soil treatment (Table 19, symbol N); assay type: in vivo, redroot pigweed (Amaranthus retroflexus); conditions: amount of applied herbicide 320 g/ha
Summary of the method: as §2

lambsquarters [10] = test: Test Example 4: herbicidal effect by soil treatment (Table 19, symbol O); assay type: in vivo, lambsquarters (Chenopodium album); conditions: amount of applied herbicide 320 g/ha
Summary of the method: as §2

chickweed = test: Test Example 4: herbicidal effect by soil treatment (Table 19, symbol P); assay type: in vivo, common chickweed (Stellaria media); conditions: amount of applied herbicide 320 g/ha
Summary of the method: as §2

persian speedwell [11] = test: Test Example 4: herbicidal effect by soil treatment (Table 19, symbol R); assay type: in vivo, Persian speedwell (Veronica persica); conditions: amount of applied herbicide 320 g/ha
Summary of the method: as §2

southern crabgrass [12] = test: Test Example 5: herbicidal effect by foliage application, plastic box (Table 20, symbol F); assay type: in vivo, southern crabgrass (Digitaria ciliaris); conditions: 320 g/ha
Summary of the method: (§3)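 Sow seeds spot-wise in sterilized diluvial soil; cover with ~1.5 cm soil. Grow 14 days in greenhouse, 25° C. to 30° C. Spray foliage with emulsion diluted to predetermined amount. Rate effect after 3 weeks.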

green foxtail [13] = test: Test Example 5: herbicidal effect by foliage application, plastic box (Table 20, symbol G); assay type: in vivo, green foxtail (Setaria viridis); conditions: 320 g/ha
Summary of the method: as §3

barnyard grass [14] = test: Test Example 5: herbicidal effect by foliage application, plastic box (Table 20, symbol H); assay type: in vivo, barnyard grass (Echinochloa crus-galli); conditions: 320 g/ha
Summary of the method: as §3

wild oat [15] = test: Test Example 5: herbicidal effect by foliage application, plastic box (Table 20, symbol I); assay type: in vivo, wild oat (Avena fatua); conditions: 320 g/ha
Summary of the method: as §3

blackgrass [16] = test: Test Example 5: herbicidal effect by foliage application, plastic box (Table 20, symbol J); assay type: in vivo, blackgrass (Alopecurus myosuroides); conditions: 320 g/ha
Summary of the method: as §3

Italian ryegrass [17] = test: Test Example 5: herbicidal effect by foliage application, plastic box (Table 20, symbol K); assay type: in vivo, Italian ryegrass (Lolium multiflorum); conditions: 320 g/ha
Summary of the method: as §3

windgrass [18] = test: Test Example 5: herbicidal effect by foliage application, plastic box (Table 20, symbol L); assay type: in vivo, windgrass (Apera spica-venti); conditions: 320 g/ha
Summary of the method: as §3

velvetleaf [19] = test: Test Example 5: herbicidal effect by foliage application, plastic box (Table 20, symbol M); assay type: in vivo, velvetleaf (Abutilon theophrasti); conditions: 320 g/ha
Summary of the method: as §3

redroot pigweed [20] = test: Test Example 5: herbicidal effect by foliage application, plastic box (Table 20, symbol N); assay type: in vivo, redroot pigweed (Amaranthus retroflexus); conditions: 320 g/ha, foliage application after 14-day growth, evaluated three weeks after application
Summary of the method: as §3

lambsquarters [21] = test: Test Example 5: herbicidal effect by foliage application, plastic box (Table 20, symbol O); assay type: in vivo, lambsquarters (Chenopodium album); conditions: 320 g/ha
Summary of the method: as §3

persian speedwell [22] = test: Test Example 5: herbicidal effect by foliage application, plastic box (Table 20, symbol R); assay type: in vivo, Persian speedwell (Veronica persica); conditions: 320 g/ha
Summary of the method: as §3

barnyard grass [23] = test: Test Example 3: herbicidal effect by foliage application, Wagner pot (Table 18, symbol H); assay type: in vivo, barnyard grass (Echinochloa crus-galli); conditions: 320 g/ha
Summary of the method: as §1

[24] = foliage application after 14-day growth, evaluated three weeks after application
[25] = foliage application, three weeks after application

Compound: CCOc1cccc(-c2sc3c(Cl)cccc3c2-c2c(O)c(C)nn(C)c2=O)c1 [4-066]
- herbicidal effect on Chinese sprangletop (D) (Chinese sprangletop): 0 (Herbicidal rate of 5% or less (almost no effect))
- herbicidal effect on rice flat sedge (E) (rice flat sedge): 3 (Herbicidal rate of 40% or more and less than 70%)
- Herbicidal effect by soil treatment, F: southern crabgrass (southern crabgrass [1]): 0 (Herbicidal rate of 5% or less (almost no effect))
- Herbicidal effect by soil treatment, G: green foxtail (green foxtail [2]): 0 (Herbicidal rate of 5% or less (almost no effect))
- Herbicidal effect by soil treatment, H: barnyard grass (barnyard grass [3]): 0 (Herbicidal rate of 5% or less (almost no effect))
- Herbicidal effect by soil treatment, I: wild oat (wild oat [4]): 0 (Herbicidal rate of 5% or less (almost no effect))
- Herbicidal effect by soil treatment, J: blackgrass (blackgrass [5]): 0 (Herbicidal rate of 5% or less (almost no effect))
- Herbicidal effect by soil treatment, K: Italian ryegrass (Italian ryegrass [6]): 0 (Herbicidal rate of 5% or less (almost no effect))
- Herbicidal effect by soil treatment, L: windgrass (windgrass [7]): 0 (Herbicidal rate of 5% or less (almost no effect))
- Herbicidal effect by soil treatment, M: velvetleaf (velvetleaf [8]): 0 (Herbicidal rate of 5% or less (almost no effect))
- Herbicidal effect by soil treatment, N: redroot pigweed (redroot pigweed [9]): 0 (Herbicidal rate of 5% or less (almost no effect))
- Herbicidal effect by soil treatment, O: lambsquarters (lambsquarters [10]): 0 (Herbicidal rate of 5% or less (almost no effect))
- Herbicidal effect by soil treatment, P: chickweed (chickweed): 0 (Herbicidal rate of 5% or less (almost no effect))
- Herbicidal effect by soil treatment, R: persian speedwell (persian speedwell [11]): 4 (Herbicidal rate of 70% or more and less than 90%)
- herbicidal effect on F: southern crabgrass (evaluation grade 0-5) (southern crabgrass [12]; [24]): 0 (Herbicidal rate of 5% or less (almost no effect))
- herbicidal effect on G: green foxtail (evaluation grade 0-5) (green foxtail [13]; [24]): 1 (Herbicidal rate of 5% or more and less than 20%)
- herbicidal effect on H: barnyard grass (evaluation grade 0-5) (barnyard grass [14]; [24]): 3 (Herbicidal rate of 40% or more and less than 70%)
- herbicidal effect on I: wild oat (evaluation grade 0-5) (wild oat [15]; [24]): 0 (Herbicidal rate of 5% or less (almost no effect))
- herbicidal effect on J: blackgrass (evaluation grade 0-5) (blackgrass [16]; [24]): 0 (Herbicidal rate of 5% or less (almost no effect))
- herbicidal effect on K: Italian ryegrass (evaluation grade 0-5) (Italian ryegrass [17]; [24]): 3 (Herbicidal rate of 40% or more and less than 70%)
- herbicidal effect on L: windgrass (evaluation grade 0-5) (windgrass [18]; [24]): 0 (Herbicidal rate of 5% or less (almost no effect))
- herbicidal effect on M: velvetleaf (evaluation grade 0-5) (velvetleaf [19]; [24]): 4 (Herbicidal rate of 70% or more and less than 90%)
- herbicidal effect on N: redroot pigweed (evaluation grade 0-5) (redroot pigweed [20]): 4 (Herbicidal rate of 70% or more and less than 90%)
- herbicidal effect on O: lambsquarters (evaluation grade 0-5) (lambsquarters [21]; [24]): 3 (Herbicidal rate of 40% or more and less than 70%)
- herbicidal effect on R: persian speedwell (evaluation grade 0-5) (persian speedwell [22]; [24]): 3 (Herbicidal rate of 40% or more and less than 70%)

Compound: CCCC(=O)Oc1c(C)nn(C)c(=O)c1-c1c(-c2ccc(F)cc2OCC)sc2cc(Cl)c(Cl)cc12 [5-054]
- herbicidal effect on barnyard grass (H) (barnyard grass [23]): 4 (Herbicidal rate of 70% or more and less than 90%)
- herbicidal effect on Chinese sprangletop (D) (Chinese sprangletop): 2 (Herbicidal rate of 20% or more and less than 40%)
- herbicidal effect on rice flat sedge (E) (rice flat sedge): 5 (Herbicidal rate of 90% or more (almost completely withered))
- F: southern crabgrass, herbicidal effect grade (southern crabgrass [1]): 0 (Herbicidal rate of 5% or less (almost no effect))
- G: green foxtail, herbicidal effect grade (green foxtail [2]): 0 (Herbicidal rate of 5% or less (almost no effect))
- H: barnyard grass, herbicidal effect grade (barnyard grass [3]): 0 (Herbicidal rate of 5% or less (almost no effect))
- I: wild oat, herbicidal effect grade (wild oat [4]): 0 (Herbicidal rate of 5% or less (almost no effect))
- J: blackgrass, herbicidal effect grade (blackgrass [5]): 0 (Herbicidal rate of 5% or less (almost no effect))
- K: Italian ryegrass, herbicidal effect grade (Italian ryegrass [6]): 0 (Herbicidal rate of 5% or less (almost no effect))
- L: windgrass, herbicidal effect grade (windgrass [7]): 0 (Herbicidal rate of 5% or less (almost no effect))
- M: velvetleaf, herbicidal effect grade (velvetleaf [8]): 0 (Herbicidal rate of 5% or less (almost no effect))
- N: redroot pigweed, herbicidal effect grade (redroot pigweed [9]): 0 (Herbicidal rate of 5% or less (almost no effect))
- O: lambsquarters, herbicidal effect grade (lambsquarters [10]): 0 (Herbicidal rate of 5% or less (almost no effect))
- P: chickweed, herbicidal effect grade (chickweed): 2 (Herbicidal rate of 20% or more and less than 40%)
- R: persian speedwell, herbicidal effect grade (persian speedwell [11]): 0 (Herbicidal rate of 5% or less (almost no effect))
- herbicidal effect on southern crabgrass (F) (southern crabgrass [12]; [25]): 2 (Herbicidal rate of 20% or more and less than 40%)
- herbicidal effect on green foxtail (G) (green foxtail [13]; [25]): 2 (Herbicidal rate of 20% or more and less than 40%)
- herbicidal effect on barnyard grass (H) (barnyard grass [14]; [25]): 4 (Herbicidal rate of 70% or more and less than 90%)
- herbicidal effect on wild oat (I) (wild oat [15]; [25]): 0 (Herbicidal rate of 5% or less (almost no effect))
- herbicidal effect on blackgrass (J) (blackgrass [16]; [25]): 0 (Herbicidal rate of 5% or less (almost no effect))
- herbicidal effect on Italian ryegrass (K) (Italian ryegrass [17]; [25]): 0 (Herbicidal rate of 5% or less (almost no effect))
- herbicidal effect on windgrass (L) (windgrass [18]; [25]): 1 (Herbicidal rate of 5% or more and less than 20%)
- herbicidal effect on velvetleaf (M) (velvetleaf [19]; [25]): 4 (Herbicidal rate of 70% or more and less than 90%)
- herbicidal effect on lambsquarters (O) (lambsquarters [21]; [25]): 3 (Herbicidal rate of 40% or more and less than 70%)
- herbicidal effect on persian speedwell (R) (persian speedwell [22]; [25]): 4 (Herbicidal rate of 70% or more and less than 90%)
